Experimental findings from paper PMC12677843, “Multidisciplinary Preclinical Investigations on Ferrocenyl, Ruthenocenyl, and Benzyl Derivatives of Niridazole as New Drug Candidates against Schistosomiasis” (Chemmedchem, 2025) are described below.

In data set [1] the test system is HUH7 hepatocarcinoma cells. Put plainly: XTT mitochondrial activity/cell viability assay, HUH7. The note with it: 20 µM, 24 h, serum-free media, vs DMSO control (0.2%). It counts as cell-based. How it is done:
Results were normalized to the DMSO control. […]
to, so that all test concentrations contained always the same amount of DMSO.
Additionally, 2 wells with negative controls containing only DMSO and the culture medium were included. After an incubation period of 72 h at 37 °C and 5 % CO 2, the worms were microscopically evaluated. The drug effect was determined 24, 48 and 72 h post-exposure based on the phenotype of the adult worms, using a viability scale ranging from three referring to viable, motile worms with no change in their tegument to zero standing for the death of the worms.
All described in vitro studies with mice involved, were conducted at the Swiss Tropical and Public Health Institute, first in Basel, later in Allschwil, and had the approval by the corresponding veterinary authorities of the Canton Basel-Stadt (permit no. 2070) […]
Following 24 h of incubation, 12.5 μL of an XTT/phenazine methosulfate (PMS) (XTT Sigma Aldrich cat X4626, PMS Serva CAT: 3203) 0.02solution (1 mg/mL XTT and 7.5 μg/mL PMS) was added to each well. Absorbance was measured using a microplate reader (Biotek Synergy HT) at 450 nm (signal) and 650 nm (background), 2 h after the addition of the XTT/PMS solution. […] Mean ± SD was determined from three independent experiments, each performed in quintuplicate. […]
The cytotoxic potential was additionally evaluated using the staining-based SYTOX viability assay. […]

Data set [2] concerns SH-SY5Y neuroblastoma cells. Nature of the data set: XTT mitochondrial activity/cell viability assay, SH-SY5Y. It counts as cell-based. The note with it: 20 µM, 24 h, serum-free media, vs DMSO control (0.2%), mean. How it is done:
The safety profile of niridazole and its organometallic derivatives was evaluated using two different cell lines. The XTT mitochondrial activity assay reflecting cell viability was performed in the hepatocyte‐derived carcinoma cell line HUH7 and in the human neuroblastoma cell line SH‐SY5Y at 20 µM for 24 h. The SYTOX cell viability assay was subsequently performed on the SH‐SY5Y cell line, once the cell line was identified to be more sensitive to the treatment conditions.
Figure 5 XTT assay. Results of the XTT activity/viability assay are shown in A for HUH7 and B for SHSY5Y cells. […]
Additionally, 2 wells with negative controls containing only DMSO and the culture medium were included. After an incubation period of 72 h at 37 °C and 5 % CO 2, the worms were microscopically evaluated. The drug effect was determined 24, 48 and 72 h post-exposure based on the phenotype of the adult worms, using a viability scale ranging from three referring to viable, motile worms with no change in their tegument to zero standing for the death of the worms. […]
Following 24 h of incubation, 12.5 μL of an XTT/phenazine methosulfate (PMS) (XTT Sigma Aldrich cat X4626, PMS Serva CAT: 3203) 0.02solution (1 mg/mL XTT and 7.5 μg/mL PMS) was added to each well. […] Mean ± SD was determined from three independent experiments, each performed in quintuplicate. […]

On to `O=C1NCCN1c1ncc([N+](=O)[O-])s1` [Niridazole, niridazole], for which the “XTT activity in HUH7 cells compared to DMSO control” value in data set [1] is listed as “no signs of toxicity”. The “reduction of XTT signal in SH-SY5Y cells” value in data set [2] was “no signs of toxicity”.
